Measured values published in US20150099802A1, “SELECTIVE TUMOR TREATMENT” (SUCAMPO AG, priority 2013, published 2015).

Experiments:
Type in all cases: cell-based
[1] = test system: hPGDH-transfected colon adenocarcinoma LS174T cells; experiment: Growth of hPGDH-transfected LS174T colon adenocarcinoma cells (cell counting); details: 100 nM lubiprostone, fresh every 24 hr, cells counted at 0-96 hr, FIG. 1B
Description: (§1) Approximately half of colon cancers have a low level of NAD^+-linked 15-hydroxyprostaglandin dehydrogenase (NAD^+-15-PGDH). It was tested whether lubiprostone affected the growth of LS174T colon […] cells, which are known to have a low level of 15-PGDH. LS174T cells (ATCC #CL-188) were grown in Eagle's Minimum Essential Medium (ATCC #30-2003) containing 10% Fetal Bovine Serum (ATCC #30-2020) at 37° C. Human PGDH (hPGDH) was expressed in LS174T cells using pCMV6-Entry Vector. Both the human cDNA clone (#RC204160) and the Precision shuttle vector (#PS100001) were from OriGene Technologies, Rockville, Md. LS174T cells were transfected with hPGDH cDNA using Lipofectamine and selected using G418 (200 μg/ml). LS174T cells±hPGDH (+hPGDH or + vector alone, mock) were grown in 35 mm petri dishes (0.5×10^4 cells/dish) in triplicate. Confluent non-transfected cells were plated in 6 well dishes (1×10^4 cells/well) in triplicate. Cultures were grown to 40% confluence and were then treated with either 0.1% EtOH-0.01% DMSO or 100 nM lubiprostone. Media were changed and fresh EtOH-DMSO or lubiprostone was added every 24 hr. Cell growth was monitored by directly counting the cells in a randomly chosen field using a cell cytometer at 0, 24, 48, 72 and 96 hr.

[2] = test system: Non-transfected colon adenocarcinoma LS174T cells; experiment: Growth of non-transfected LS174T colon adenocarcinoma cells (cell counting); details: 100 nM lubiprostone, fresh every 24 hr; cells counted at 0, 24, 48, 72 and 96 hr; non-transfected cells (low 15-PGDH); FIG. 1A
Description: as §1

[3] = test system: Mock-transfected colon adenocarcinoma LS174T cells; experiment: Growth of mock-transfected LS174T colon adenocarcinoma cells (cell counting); details: 100 nM lubiprostone, fresh every 24 hr; cells counted at 0-96 hr; vector-alone (mock) LS174T cells; FIG. 1C
Description: as §1

For `CCCCC(F)(F)[C@@]1(O)CC[C@H]2[C@@H](CC(=O)[C@@H]2CCCCCCC(=O)O)O1` [lubiprostone, (−)-7-[(2R,4aR,5R,7aR)-2-(1,1-difluoropentyl)-2-hydroxy-6-oxooctahydrocyclopenta[b]pyran-5-yl]heptanoic acid], which “lubiprostone inhibition of cell growth after transfection with 15-OH PGDH” value [1] is on record?
The value was “prevented lubiprostone inhibition of cell growth”.

And the LS174T cell growth [2]?
The LS174T cell growth was “slowed or stopped”.

What about the “effect of mock transfection on lubiprostone inhibition of cell growth” value [3] of the same compound?
Its value is “Mock transfection had no effect”.
